Measurements from patent US7550451B2, “Progesterone receptor modulators with increased antigonadotropic activity for female birth control and hormone replacement therapy” (Bayer Schering Pharma AG, priority 2002, dated 2009).

Molecular target: T1, Progesterone receptor (Oryctolagus cuniculus, UniProt P06186)
T1 construct: Uterus cytosol of the estradiol-primed rabbit; from tissue; host or cells: uterus cytosol of estradiol-primed rabbit
T1 sequence (P06186 1-930): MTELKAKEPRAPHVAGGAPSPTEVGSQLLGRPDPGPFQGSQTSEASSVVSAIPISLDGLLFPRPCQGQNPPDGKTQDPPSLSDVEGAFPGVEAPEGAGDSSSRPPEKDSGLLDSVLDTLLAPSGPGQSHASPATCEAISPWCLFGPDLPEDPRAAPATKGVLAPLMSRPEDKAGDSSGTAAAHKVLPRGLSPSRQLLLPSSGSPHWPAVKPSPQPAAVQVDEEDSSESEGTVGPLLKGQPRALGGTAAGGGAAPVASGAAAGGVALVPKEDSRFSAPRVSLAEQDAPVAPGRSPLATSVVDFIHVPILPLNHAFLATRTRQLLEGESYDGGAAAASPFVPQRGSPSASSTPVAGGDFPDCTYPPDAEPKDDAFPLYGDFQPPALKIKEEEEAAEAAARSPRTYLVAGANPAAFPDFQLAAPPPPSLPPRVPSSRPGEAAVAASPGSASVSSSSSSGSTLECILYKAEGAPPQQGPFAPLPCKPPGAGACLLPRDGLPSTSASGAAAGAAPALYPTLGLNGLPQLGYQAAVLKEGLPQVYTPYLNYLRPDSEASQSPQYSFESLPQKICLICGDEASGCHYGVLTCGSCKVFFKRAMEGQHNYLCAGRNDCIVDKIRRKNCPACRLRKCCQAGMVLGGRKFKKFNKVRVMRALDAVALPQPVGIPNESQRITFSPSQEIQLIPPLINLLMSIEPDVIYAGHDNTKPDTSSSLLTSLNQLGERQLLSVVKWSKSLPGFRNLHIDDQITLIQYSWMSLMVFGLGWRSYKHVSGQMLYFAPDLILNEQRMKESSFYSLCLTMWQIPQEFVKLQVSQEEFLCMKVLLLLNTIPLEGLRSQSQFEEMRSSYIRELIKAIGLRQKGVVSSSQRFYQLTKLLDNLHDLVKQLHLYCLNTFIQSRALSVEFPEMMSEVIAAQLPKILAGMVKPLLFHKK
Assay: Receptor binding affinity, progesterone receptor (competitive binding, 3H-ORG 2058)
Conditions: Progesterone = 100%; uterus cytosol of estradiol-primed rabbit
Method: The receptor binding affinity was determined by competitive binding of a specifically binding ^3H-labeled hormone (tracer) and the compound to be tested on receptors in the cytosol from animal target organs. In this case, receptor saturation and reaction equilibrium were sought.
The tracers and increasing concentrations of the compound to be tested (competitor) were co-incubated with the receptor-containing cytosol fraction at 0-4° C. over 18 hours. After separation of the unbonded tracer with carbon-dextran suspension, the receptor-bonded tracer portion was measured for each concentration, and the IC50 was determined from the concentration sequence. As a quotient of the IC50 values of the reference substance and the compound to be tested (×100%), the relative molar binding affinity (RBA) was calculated (RBA of the reference substance=100%).
Uterus cytosol of the estradiol-primed rabbit; homogenized in TED buffer (20 mmol of Tris/HCl, pH 7.4; 1 mmol of ethylenediamine tetraacetate, 2 mmol of dithiothreitol) with 250 mmol of saccharose; stored at −30° C. Tracer: ^3H-ORG 2058, 5 nmol; reference substance: progesterone.

CC1(O)CCC2C3CCC4=CC(=O)CCC4=C3C(c3ccc(C=NO)cc3)CC21C (stereo not drawn) [Example 2, 4-(17β-Hydroxy-17α-methyl-3-oxoestra-4,9-dien-11β-yl)benzaldehyde-1(E)-oxime]
PR relative molar binding affinity (RBA): 95%

C[C@]12C[C@H](c3ccc(/C=N/O)cc3)C3=C4CCC(=O)C=C4CC[C@H]3[C@@H]1CC[C@@H]2O [Example 1, 4-(17β-Hydroxy-3-oxoestra-4,9-dien-11β-yl)benzaldehyde-1(E)-oxime]
PR relative molar binding affinity (RBA): 26%
